Data: ChEMBL document CHEMBL1909046, “DrugMatrix in vitro pharmacology data”

What was measured:
Nitric oxide synthase 1 = Nitric oxide synthase 1 (Rattus norvegicus, UniProt P29476); format: tissue-based, Cerebellum; also: in other assays of this panel Not Active means under 50% inhibition at 10 µM
[1] = biological target: Prostaglandin G/H synthase 1 (Homo sapiens, UniProt P23219); assay: biochemical; format: tissue-based, Platelet; details: platelet;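 also: inhibition of COX-1 enzyme activity, with arachidonic acid supplied as substrate; in other assays of this panel Not Active means under 50% inhibition at 10 µM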
Prostaglandin G/H synthase 1, sequence (P23219 whole entry): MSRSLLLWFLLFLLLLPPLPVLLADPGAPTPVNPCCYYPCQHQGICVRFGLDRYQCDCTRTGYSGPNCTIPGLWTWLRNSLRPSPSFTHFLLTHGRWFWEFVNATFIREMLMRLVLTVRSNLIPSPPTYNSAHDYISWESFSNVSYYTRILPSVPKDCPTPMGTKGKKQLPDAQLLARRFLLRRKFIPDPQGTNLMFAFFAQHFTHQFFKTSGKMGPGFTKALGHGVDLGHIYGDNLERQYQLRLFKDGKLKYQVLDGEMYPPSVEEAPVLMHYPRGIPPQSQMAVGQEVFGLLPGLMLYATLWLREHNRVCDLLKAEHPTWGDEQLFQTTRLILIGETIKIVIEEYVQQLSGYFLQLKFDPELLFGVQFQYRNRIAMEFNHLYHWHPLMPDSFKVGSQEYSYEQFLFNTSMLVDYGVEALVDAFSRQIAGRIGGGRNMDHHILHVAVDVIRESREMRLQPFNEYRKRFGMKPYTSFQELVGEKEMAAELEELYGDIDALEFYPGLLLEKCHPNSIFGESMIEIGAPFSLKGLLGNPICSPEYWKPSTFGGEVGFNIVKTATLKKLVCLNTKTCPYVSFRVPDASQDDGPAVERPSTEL

Cytochrome P450 2E1 = Cytochrome P450 2E1 (Homo sapiens, UniProt P05181); details: bti-tn-5b1-4; also: in other assays of this panel Not Active means under 50% inhibition at 10 µM
Cytochrome P450 2E1, sequence (P05181 whole entry): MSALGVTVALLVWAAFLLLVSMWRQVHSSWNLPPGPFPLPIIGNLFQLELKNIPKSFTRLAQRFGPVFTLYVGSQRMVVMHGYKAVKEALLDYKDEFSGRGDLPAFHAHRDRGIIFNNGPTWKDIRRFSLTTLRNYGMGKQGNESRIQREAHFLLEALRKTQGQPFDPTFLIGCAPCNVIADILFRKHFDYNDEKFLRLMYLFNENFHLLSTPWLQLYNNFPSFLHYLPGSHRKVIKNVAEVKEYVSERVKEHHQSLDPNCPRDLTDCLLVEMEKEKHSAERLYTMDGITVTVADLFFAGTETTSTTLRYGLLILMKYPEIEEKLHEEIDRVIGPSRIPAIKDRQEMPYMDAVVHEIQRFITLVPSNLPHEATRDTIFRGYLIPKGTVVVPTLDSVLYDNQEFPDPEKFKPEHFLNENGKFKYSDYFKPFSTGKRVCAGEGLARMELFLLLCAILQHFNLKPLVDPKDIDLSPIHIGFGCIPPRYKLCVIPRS

Adenosine receptor A2a = Adenosine receptor A2a (Homo sapiens, UniProt P29274); assay: DRUGMATRIX: Adenosine A2A radioligand binding (ligand: […]); format: cell membranes, HEK293, Membrane; details: hek293; Not Active = under 50% inhibition at 10 µM
Adenosine receptor A2a, sequence (P29274 whole entry): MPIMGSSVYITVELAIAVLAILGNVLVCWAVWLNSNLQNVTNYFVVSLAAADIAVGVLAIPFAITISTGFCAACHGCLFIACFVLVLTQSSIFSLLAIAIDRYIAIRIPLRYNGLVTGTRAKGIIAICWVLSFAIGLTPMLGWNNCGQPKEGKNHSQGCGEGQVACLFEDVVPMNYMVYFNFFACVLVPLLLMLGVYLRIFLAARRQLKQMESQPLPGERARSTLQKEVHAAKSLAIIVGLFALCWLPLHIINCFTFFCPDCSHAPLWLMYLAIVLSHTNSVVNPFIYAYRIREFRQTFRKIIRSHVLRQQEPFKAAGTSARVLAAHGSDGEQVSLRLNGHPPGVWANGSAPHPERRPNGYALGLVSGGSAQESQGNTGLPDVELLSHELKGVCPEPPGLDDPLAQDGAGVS

[2] = biological target: T1, Alpha-1A adrenergic receptor (Rattus norvegicus, UniProt P43140); assay: DRUGMATRIX: Alpha-1A adrenergic receptor radioligand binding (ligand: prazosin); format: cell membranes, Wistar, Submaxillary gland, Membrane; details: Not Active = under 50% inhibition at 10 µM
T1 sequence (P43140 whole entry): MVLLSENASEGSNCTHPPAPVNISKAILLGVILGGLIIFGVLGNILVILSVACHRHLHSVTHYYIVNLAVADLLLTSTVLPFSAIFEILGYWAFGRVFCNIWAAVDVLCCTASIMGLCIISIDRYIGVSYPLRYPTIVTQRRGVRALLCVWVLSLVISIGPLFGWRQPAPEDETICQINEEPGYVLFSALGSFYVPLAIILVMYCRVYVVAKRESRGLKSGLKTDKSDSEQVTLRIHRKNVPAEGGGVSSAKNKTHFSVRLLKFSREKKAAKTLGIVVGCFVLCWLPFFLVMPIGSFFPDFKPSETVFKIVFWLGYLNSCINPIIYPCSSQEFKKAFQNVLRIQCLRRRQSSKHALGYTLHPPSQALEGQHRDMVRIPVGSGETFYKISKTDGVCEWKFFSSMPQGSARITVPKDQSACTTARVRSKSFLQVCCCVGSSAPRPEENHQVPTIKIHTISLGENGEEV

[3] = biological target: T2, Vasoactive intestinal polypeptide receptor 1 (Homo sapiens, UniProt P32241); format: cell membranes, Membrane; details: ht-29; also: in other assays of this panel Not Active means under 50% inhibition at 10 µM
T2 sequence (P32241 whole entry): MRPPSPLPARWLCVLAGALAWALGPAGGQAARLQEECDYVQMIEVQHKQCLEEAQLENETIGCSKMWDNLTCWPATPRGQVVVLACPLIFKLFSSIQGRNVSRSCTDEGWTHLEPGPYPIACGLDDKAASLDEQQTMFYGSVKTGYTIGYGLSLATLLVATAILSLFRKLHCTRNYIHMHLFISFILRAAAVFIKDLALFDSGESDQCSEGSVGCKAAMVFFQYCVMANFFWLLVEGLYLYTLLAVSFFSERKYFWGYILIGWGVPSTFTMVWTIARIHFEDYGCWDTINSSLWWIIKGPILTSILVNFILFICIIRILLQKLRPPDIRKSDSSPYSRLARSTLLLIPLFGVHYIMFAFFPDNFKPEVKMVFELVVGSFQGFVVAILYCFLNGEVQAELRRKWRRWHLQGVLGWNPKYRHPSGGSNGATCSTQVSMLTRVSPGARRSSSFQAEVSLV

Caspase-1 = biological target: T3, Caspase-1 (Homo sapiens, UniProt P29466); set-up: species or system Escherichia coli
T3 sequence (P29466 whole entry): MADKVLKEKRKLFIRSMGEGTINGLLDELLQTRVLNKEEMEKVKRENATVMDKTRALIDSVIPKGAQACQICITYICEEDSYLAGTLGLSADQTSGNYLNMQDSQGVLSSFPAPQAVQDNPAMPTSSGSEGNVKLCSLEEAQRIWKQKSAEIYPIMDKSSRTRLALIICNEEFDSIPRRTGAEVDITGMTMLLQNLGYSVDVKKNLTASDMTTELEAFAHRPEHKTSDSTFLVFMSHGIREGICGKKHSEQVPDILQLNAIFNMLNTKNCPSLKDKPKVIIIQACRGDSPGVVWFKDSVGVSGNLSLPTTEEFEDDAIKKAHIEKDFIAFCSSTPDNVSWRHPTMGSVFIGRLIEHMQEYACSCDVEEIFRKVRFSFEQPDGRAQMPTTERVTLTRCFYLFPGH

Nitric oxide synthase 1, sequence (P29476 whole entry): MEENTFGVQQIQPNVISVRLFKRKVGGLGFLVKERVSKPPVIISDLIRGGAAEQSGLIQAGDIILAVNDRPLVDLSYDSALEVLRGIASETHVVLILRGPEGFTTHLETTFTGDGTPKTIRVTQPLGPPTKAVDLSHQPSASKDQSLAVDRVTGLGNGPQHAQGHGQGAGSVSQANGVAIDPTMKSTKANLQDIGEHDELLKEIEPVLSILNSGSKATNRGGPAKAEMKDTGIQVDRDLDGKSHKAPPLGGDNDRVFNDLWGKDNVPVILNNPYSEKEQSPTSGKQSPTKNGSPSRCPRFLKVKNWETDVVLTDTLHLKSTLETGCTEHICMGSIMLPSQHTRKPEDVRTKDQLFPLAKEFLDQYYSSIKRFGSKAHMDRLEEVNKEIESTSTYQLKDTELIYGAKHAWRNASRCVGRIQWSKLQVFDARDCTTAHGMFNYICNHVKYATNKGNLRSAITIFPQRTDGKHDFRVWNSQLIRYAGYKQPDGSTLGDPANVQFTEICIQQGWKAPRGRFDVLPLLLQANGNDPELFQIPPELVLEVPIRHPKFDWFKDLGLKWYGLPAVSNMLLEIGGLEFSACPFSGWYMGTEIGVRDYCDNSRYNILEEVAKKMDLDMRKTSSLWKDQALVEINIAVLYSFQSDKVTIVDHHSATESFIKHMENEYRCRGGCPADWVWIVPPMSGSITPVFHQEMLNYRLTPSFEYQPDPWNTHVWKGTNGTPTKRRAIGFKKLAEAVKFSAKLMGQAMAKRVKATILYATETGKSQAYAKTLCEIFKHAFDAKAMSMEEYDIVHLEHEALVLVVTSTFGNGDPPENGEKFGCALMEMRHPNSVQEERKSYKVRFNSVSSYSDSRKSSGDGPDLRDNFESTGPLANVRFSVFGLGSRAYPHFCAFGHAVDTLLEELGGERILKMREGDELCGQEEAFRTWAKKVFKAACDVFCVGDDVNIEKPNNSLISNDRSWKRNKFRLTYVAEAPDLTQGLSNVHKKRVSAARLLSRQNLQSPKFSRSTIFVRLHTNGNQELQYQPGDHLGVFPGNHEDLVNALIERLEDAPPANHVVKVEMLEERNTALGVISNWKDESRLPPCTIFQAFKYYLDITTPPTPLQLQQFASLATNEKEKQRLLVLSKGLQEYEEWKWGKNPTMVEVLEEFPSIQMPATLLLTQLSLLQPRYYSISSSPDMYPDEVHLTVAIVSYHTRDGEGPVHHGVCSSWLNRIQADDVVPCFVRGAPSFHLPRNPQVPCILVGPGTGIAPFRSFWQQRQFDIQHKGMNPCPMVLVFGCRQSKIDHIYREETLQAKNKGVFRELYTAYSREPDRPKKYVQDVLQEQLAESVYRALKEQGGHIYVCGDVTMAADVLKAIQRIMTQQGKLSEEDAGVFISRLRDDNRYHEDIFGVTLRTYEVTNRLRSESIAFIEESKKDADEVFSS

C[N+](C)(C)C[C@H](O)CC(=O)[O-] [LEVOCARNITINE]
Not Active: IC50 (Nitric oxide synthase 1) | IC50 [1] | IC50 (Cytochrome P450 2E1) | Ki (Cytochrome P450 2E1) | IC50 (Adenosine receptor A2a) | IC50 [2] | IC50 [3] | IC50 (Caspase-1)

O=C(O)c1cc(-c2ccc(F)cc2F)ccc1O [DIFLUNISAL]
Not Active: IC50 (Nitric oxide synthase 1) | IC50 [1] | IC50 (Cytochrome P450 2E1) | Ki (Cytochrome P450 2E1) | IC50 (Adenosine receptor A2a) | IC50 [2] | IC50 [3] | IC50 (Caspase-1)

CN1CCN(C(c2ccccc2)c2ccccc2)CC1 [CYCLIZINE]
Not Active: IC50 (Nitric oxide synthase 1) | IC50 [1] | IC50 (Cytochrome P450 2E1) | Ki (Cytochrome P450 2E1) | IC50 (Adenosine receptor A2a) | IC50 [2] | IC50 [3] | IC50 (Caspase-1)

CC(C)(C)NCC(O)COc1cccc2c1CC(O)C(O)C2 (stereo unspecified) [NADOLOL]
Not Active: IC50 (Nitric oxide synthase 1) | IC50 [1] | IC50 (Cytochrome P450 2E1) | Ki (Cytochrome P450 2E1) | IC50 (Adenosine receptor A2a) | IC50 [2] | IC50 [3] | IC50 (Caspase-1)

CCCNC(=O)NS(=O)(=O)c1ccc(Cl)cc1 [CHLORPROPAMIDE]
Not Active: IC50 (Nitric oxide synthase 1) | IC50 [1] | IC50 (Cytochrome P450 2E1) | Ki (Cytochrome P450 2E1) | IC50 (Adenosine receptor A2a) | IC50 [2] | IC50 [3] | IC50 (Caspase-1)

CO/N=C(\C(=O)N[C@@H]1C(=O)N2C(C(=O)O)=C(COC(C)=O)CS[C@H]12)c1csc(N)n1 [CEFOTAXIME]
Not Active: IC50 (Nitric oxide synthase 1) | IC50 [1] | IC50 (Cytochrome P450 2E1) | Ki (Cytochrome P450 2E1) | IC50 (Adenosine receptor A2a) | IC50 [2] | IC50 [3] | IC50 (Caspase-1)

Nc1cc(-c2ccncc2)c[nH]c1=O [INAMRINONE]
Not Active: IC50 (Nitric oxide synthase 1) | IC50 [1] | IC50 (Cytochrome P450 2E1) | Ki (Cytochrome P450 2E1) | IC50 (Adenosine receptor A2a) | IC50 [2] | IC50 [3] | IC50 (Caspase-1)
